The results in this text go back to PMC10756276, “Highly specific σ2R/TMEM97 ligand FEM-1689 alleviates neuropathic pain and inhibits the integrated stress response” (Proceedings of the National Academy of Sciences of the …, 2023).

“Also recorded” adds a separate entry of the source. Read-outs that look alike come from different tables or passages of the source.

Assay [1] has as its system MGO-induced mechanical hypersensitivity, wild-type mice. As to the kind of experiment: Methylglyoxal-induced mechanical hypersensitivity. It is filed as in vivo, mouse. The conditions noted are these: MGO 20 ng intraplantar; FEM-1689 20 mg/kg IV or ISRIB 2.5 mg/kg IP 24 h after MGO.
The target in the next assay is H4 (Homo sapiens, UniProt Q9H3N8). As to the kind of experiment: PDSP competitive binding assay.
Sequence of H4 (Q9H3N8 whole entry): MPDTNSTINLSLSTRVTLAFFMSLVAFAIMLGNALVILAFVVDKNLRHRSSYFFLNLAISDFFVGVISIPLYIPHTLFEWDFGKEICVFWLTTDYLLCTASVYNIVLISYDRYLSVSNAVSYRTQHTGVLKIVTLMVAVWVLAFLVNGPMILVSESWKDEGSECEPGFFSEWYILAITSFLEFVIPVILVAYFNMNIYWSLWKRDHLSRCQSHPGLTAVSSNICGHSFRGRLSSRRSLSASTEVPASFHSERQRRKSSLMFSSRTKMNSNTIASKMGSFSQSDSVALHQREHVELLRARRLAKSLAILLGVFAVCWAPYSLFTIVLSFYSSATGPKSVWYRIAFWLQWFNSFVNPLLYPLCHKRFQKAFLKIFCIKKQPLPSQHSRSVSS
For another assay, the target named is T1, 5HT5a (Homo sapiens, UniProt P47898).
T1 construct: purchased NIMH Psychoactive Drug Screening Program (PDSP), University of North Carolina at Chapel Hill
T1 sequence (P47898 whole entry): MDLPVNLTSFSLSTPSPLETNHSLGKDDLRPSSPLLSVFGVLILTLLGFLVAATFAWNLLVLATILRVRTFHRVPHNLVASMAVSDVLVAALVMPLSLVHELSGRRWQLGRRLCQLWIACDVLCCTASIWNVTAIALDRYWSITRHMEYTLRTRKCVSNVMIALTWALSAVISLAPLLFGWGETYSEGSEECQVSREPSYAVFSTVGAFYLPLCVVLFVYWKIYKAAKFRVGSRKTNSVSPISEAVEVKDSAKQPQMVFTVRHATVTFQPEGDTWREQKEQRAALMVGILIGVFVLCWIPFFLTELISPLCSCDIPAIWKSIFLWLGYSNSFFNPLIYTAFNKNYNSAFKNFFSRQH
As to the kind of experiment: PDSP competitive binding assay. The settings on record: 10 µM test article; read-out: Ki: primary assay inhibition of radioligand binding, 5HT5a.

Another assay concerns the target 5HT2A (Homo sapiens, UniProt P28223). As to the kind of experiment: PDSP competitive binding assay. The conditions noted are these: 10 µM test article; read-out: Ki: primary assay inhibition of radioligand binding, 5HT2A.
The next assay concerns the target T2, Beta1 (Homo sapiens, UniProt P08588).
T2 construct: purchased NIMH Psychoactive Drug Screening Program (PDSP), University of North Carolina at Chapel Hill
The experiment in a line: PDSP competitive binding assay. The conditions noted are these: 10 µM test article; read-out: Ki: primary assay inhibition of radioligand binding, Beta1.

The test system of another assay is p-eIF2α in HEK293T cells. As to the kind of experiment: p-eIF2α ICC and spectrophotometry in HEK293T cells. It counts as cell-based, human. On the procedure: The ICC protocol was based on a previously published protocol ([76]). […] Cells were blocked with 10% normal goat serum (NGS) in PBS-triton X (0.1%). […] Antibodies were incubated at 4 °C overnight. […] It was washed with PBS twice. […] Images were analyzed using Olympus CellSens. […] Number of cells analyzed are detailed in SI Appendix, Tables S3 and S4.
Human embryonic kidney (HEK) 293 T cells (ATCC # CRL-3216) were generously donated by the Campbell Lab (UT Dallas). Cells were grown at 37 °C with 5% CO2 in complete medium (10% FBS, 1% Pen-Strep in DMEM/F12 + GlutaMax (Gibco #10565-018) in T-75 flasks (Greiner Bio-One #658175). In a 96-well plate (ThermoFisher #165305), cells were plated at a density of 20,000 cells per well and grown to roughly 65% confluency before being treated with FEM-1689. For 2-h FEM-1689 treatment, HEK cells were plated at a density of 32,000 cells per well and treated at roughly 85% confluency. Three to five replicates were made per condition/dose (1/2 log steps ranging from 0.1 to 1,000 nM). ICC was performed to label p-eIF2α and DAPI. Immunofluorescence of HEK cells was quantified using the Synergy HTX Multimode Reader. For further details regarding the culturing of HEK cells, see SI Appendix. […]
Huma n e mbryon ic kidn ey (HEK) 293T ce lls (ATCC # C RL- 321 6) were ge nerously dona ted by th e Ca mpb ell Lab (UT Dallas). Cell stock s were previously fr ozen at 1 million cells/ml in 90% fetal bov ine s erum (F BS, ThermoFisher #SH300880340) and 10% DMSO. Cells were grown in complete medium (10% FBS, 1% Pen- Strep in DMEM/F12 + GlutaMax (Gibco #10565- 018) in T-75 flasks (Greiner Bio- One #658175). Cells were maintained at 37 °C with 5% CO2 and passaged twice before being plated onto either 96-well or 6-well plates for ICC/spectrophotometry and western blotting, respectively. Cells were counted using the TC20 automated cell counter (Bio- R ad #1450102) using a 1:1 dilution of trypan blue (Gibco #15250061).
In a 9 6-well p lat e (Therm oFisher #16 530 5), cells were p late d at a de nsity of 20,0 00 cells per w ell a nd gro wn to rou gh ly 65 % conf lu ency before be in g tre ate d w ith F EM- 16 89. For 2 h our F EM- 1689 trea tme nt, HEK ce lls were plated at a density of 32,000 cells per well and treated at roughly 85% confluency. […] Immunofluorescence of HEK cells was quantif ied using the Synergy HTX Multimode Reader. […] Wells were topped with 100 µL of 1X PBS prior to being read. DAPI and p -eIF2α reads were performed at bottom with a gain of 3 5 a nd 45, r espective ly. […]
fluorescence units (RFUs) of the negative controls were subtracted from each well. P-eIF2α fluorescence was normalized to DAPI in order to control for the number of cells present in the well and then to the fluoresce nce of th e veh icle t reatme nt as a p ercenta ge. […]

The target of another assay is DOR (Homo sapiens, UniProt P41143). The experiment in a line: PDSP competitive binding assay. The settings on record: 10 µM test article; read-out: Ki: primary assay inhibition of radioligand binding, DOR.
Sequence of DOR (P41143 whole entry): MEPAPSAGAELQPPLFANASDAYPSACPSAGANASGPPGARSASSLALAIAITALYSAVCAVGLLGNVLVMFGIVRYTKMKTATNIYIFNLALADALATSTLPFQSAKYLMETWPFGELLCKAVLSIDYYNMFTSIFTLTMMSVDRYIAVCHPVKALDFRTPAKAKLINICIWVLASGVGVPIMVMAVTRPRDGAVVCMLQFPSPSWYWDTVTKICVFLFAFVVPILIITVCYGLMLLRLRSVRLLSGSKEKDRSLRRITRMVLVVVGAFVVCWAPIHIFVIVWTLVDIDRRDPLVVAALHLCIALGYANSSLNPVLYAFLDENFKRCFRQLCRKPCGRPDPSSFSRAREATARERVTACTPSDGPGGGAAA
Another assay addresses 5HT1D (Homo sapiens, UniProt P28221). The experiment in a line: PDSP competitive binding assay. The settings on record: 10 µM test article; read-out: Ki: primary assay inhibition of radioligand binding, 5HT1D.
A further assay concerns the target T3, 5HT1A (Homo sapiens, UniProt P08908).
T3 construct: purchased NIMH Psychoactive Drug Screening Program (PDSP), University of North Carolina at Chapel Hill
As to the kind of experiment: PDSP competitive binding assay. The settings on record: 10 µM test article; read-out: Ki: primary assay inhibition of radioligand binding, 5HT1A.

The next assay addresses σ1R (Homo sapiens, UniProt Q99720). The experiment in a line: Competition binding with [3H]-(+)-pentazocine (NIMH PDSP).
The target in the next assay is 5HT6 (Homo sapiens, UniProt P50406). The experiment in a line: PDSP competitive binding assay. The settings on record: single determination.
Sequence of 5HT6 (P50406 whole entry, species assumed): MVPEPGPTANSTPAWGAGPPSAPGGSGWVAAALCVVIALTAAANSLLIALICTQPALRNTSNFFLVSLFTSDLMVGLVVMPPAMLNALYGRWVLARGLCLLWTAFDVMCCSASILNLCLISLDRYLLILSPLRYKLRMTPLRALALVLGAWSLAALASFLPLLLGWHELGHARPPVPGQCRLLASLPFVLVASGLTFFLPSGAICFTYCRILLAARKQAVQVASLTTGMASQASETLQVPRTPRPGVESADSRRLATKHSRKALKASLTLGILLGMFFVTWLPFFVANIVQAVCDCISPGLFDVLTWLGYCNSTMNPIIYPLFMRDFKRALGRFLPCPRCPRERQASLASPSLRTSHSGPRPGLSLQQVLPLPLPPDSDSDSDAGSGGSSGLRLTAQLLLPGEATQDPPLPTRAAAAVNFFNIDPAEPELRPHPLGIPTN

Sequence of σ1R (Q99720 whole entry): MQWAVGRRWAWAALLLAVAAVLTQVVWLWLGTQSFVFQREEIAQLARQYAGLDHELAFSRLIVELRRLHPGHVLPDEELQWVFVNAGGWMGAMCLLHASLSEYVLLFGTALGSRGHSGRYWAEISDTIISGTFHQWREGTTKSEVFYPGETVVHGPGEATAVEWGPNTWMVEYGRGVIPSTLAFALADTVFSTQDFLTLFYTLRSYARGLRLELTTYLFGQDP
Sequence of 5HT2A (P28223 whole entry): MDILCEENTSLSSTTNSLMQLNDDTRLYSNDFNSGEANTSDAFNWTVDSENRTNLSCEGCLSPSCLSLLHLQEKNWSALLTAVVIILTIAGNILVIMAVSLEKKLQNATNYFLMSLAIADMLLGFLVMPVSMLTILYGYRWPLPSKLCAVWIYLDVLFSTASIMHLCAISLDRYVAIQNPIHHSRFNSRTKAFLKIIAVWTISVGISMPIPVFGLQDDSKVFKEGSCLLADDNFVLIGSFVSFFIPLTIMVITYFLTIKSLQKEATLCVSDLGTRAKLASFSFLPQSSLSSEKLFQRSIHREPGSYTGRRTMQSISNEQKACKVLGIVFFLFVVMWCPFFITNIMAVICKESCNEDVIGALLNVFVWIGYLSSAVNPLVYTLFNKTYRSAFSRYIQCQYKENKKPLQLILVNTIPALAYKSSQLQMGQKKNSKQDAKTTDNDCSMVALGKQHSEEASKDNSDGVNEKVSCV
T3 sequence (P08908 whole entry): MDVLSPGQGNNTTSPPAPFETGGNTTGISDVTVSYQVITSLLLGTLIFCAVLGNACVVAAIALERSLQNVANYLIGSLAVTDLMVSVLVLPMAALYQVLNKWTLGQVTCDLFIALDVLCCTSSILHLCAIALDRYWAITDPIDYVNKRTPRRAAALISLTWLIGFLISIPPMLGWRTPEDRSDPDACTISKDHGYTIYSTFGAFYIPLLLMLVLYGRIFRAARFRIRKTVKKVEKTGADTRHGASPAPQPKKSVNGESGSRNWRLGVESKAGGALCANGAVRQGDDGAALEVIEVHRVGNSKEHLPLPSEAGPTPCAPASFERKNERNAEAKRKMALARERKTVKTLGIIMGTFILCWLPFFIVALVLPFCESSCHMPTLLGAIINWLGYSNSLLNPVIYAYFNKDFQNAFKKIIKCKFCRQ
T2 sequence (P08588 whole entry): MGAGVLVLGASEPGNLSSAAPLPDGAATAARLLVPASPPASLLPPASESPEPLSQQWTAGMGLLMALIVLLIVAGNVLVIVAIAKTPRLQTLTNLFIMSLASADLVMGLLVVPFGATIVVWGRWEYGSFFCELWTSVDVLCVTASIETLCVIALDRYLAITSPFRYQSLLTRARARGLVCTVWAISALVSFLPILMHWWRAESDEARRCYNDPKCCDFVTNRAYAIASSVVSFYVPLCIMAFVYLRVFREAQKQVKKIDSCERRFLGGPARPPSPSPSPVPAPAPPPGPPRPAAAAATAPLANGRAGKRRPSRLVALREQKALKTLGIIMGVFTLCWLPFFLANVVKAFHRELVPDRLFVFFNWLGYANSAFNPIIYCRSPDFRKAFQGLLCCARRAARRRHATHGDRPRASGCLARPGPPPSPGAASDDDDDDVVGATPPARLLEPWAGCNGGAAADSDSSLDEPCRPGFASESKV
Sequence of 5HT1D (P28221 whole entry): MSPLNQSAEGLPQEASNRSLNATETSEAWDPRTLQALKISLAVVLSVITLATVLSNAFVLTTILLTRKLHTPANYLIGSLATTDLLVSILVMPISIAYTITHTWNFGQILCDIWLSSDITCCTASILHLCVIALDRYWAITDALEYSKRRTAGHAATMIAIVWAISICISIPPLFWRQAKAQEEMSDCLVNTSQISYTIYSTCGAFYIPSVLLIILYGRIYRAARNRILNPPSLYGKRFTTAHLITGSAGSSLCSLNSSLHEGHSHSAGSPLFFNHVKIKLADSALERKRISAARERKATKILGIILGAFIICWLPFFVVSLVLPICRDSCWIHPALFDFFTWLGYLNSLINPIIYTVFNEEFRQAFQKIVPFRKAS

Regarding `OCCCN1CC[C@@H]2C[C@H]1c1cc(-c3ccc(C(F)(F)F)cc3)ccc12` [FEM-1689], the MGO-induced mechanical hypersensitivity entry in assay [1] is “completely reversed MGO-induced mechanical hypersensitivity; also recorded: alleviated mechanical hypersensitivity for the duration of the pain state”. For the same compound, the “LogKi, H4” value on H4 (dose response curve, given as LogKi with negative sign) was -5.26. In addition, the inhibitory constant (Ki) – broadly, a dissociation constant, usually derived from enzyme kinetics or from competition with a known ligand – at H4 (read-out: H4 Ki, single determination) was 5510 nM; at H4 (read-out: Ki, H4, dose response curve), 5510 nM; on σ1R, 206 nM; on σ1R (read-out: σ1R Ki, averages ± SD), 167 ± 54 nM; on 5HT6 it was more than 10000 nM. Also, the inhibition at 10 µM at 5HT5a, at 5HT2A, at Beta1, at DOR, on 5HT1D and on 5HT1A was less than 50% throughout. Further, the IC50 (commonly the concentration at which inhibition is half-maximal) was 5.89 nM with p-eIF2α in HEK293T cells (2 h treatment); 0.74 nM with p-eIF2α in HEK293T cells (16 h treatment); 5.9 nM with p-eIF2α in HEK293T cells (Homo sapiens, HEK-293T, 2 h, 2 h treatment); 0.7 nM in the assay on p-eIF2α in HEK293T cells (Homo sapiens, HEK-293T, 16 h, 16 h treatment). At σ1R (ratio of Ki), the “selectivity for σ2R/TMEM97 vs σ1R” value is recorded as 10 fold.
